The target in this assay is T1, LOXL2 (Homo sapiens, UniProt Q9Y4K0).
T1 sequence (Q9Y4K0 26-774): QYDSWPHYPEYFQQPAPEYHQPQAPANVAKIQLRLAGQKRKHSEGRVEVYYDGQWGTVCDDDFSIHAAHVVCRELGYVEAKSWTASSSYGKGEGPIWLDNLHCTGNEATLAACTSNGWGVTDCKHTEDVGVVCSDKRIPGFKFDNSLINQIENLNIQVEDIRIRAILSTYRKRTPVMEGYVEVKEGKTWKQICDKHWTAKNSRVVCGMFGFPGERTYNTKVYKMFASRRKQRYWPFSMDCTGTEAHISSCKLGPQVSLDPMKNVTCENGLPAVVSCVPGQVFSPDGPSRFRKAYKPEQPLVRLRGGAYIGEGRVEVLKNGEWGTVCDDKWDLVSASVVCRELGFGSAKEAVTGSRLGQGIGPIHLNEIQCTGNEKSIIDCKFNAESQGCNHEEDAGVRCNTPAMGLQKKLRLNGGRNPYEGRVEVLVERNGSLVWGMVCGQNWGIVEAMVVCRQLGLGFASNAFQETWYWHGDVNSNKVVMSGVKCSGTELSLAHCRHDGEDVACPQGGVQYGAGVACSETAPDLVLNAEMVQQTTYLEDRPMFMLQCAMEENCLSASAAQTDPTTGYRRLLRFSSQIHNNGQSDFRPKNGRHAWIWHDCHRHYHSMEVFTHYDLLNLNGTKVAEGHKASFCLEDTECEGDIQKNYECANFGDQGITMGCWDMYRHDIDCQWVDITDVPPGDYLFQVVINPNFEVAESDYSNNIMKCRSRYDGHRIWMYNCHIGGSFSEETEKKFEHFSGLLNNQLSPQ
Description: Standard Amplex Red assay, rh LOXL2 (putrescine substrate). Conditions: for IC50: Amplex Red assay, 30 min pre-incubation. Type of assay: biochemical. From the text:
FIGURE 1 Characteristics of the activity‐based probe (ABP) PXS‐5878. (A) Chemical structure of PXS‐5878, with functional subunits denoted with different colours. The fluoroallylamine moiety (blue) was designed to interact with the lysine tyrosylquinone (LTQ) co‐factor within the lysyl oxidase active sites. An extended linker (green) was incorporated to provide optimal separation between the reactive functional group and the tag, avoiding unfavourable steric hindrance. Biotin was selected as a tag, with higher sensitivity found to be achieved using a double tag (red), resulting in PXS‐5878 as the preferred ABP. (B) Concentration‐dependent inhibition of recombinant human (rh) lysyl oxidase‐like 1‐4 (LOXL1‐4) and native bovine LOX in a standard Amplex Red assay with 30 min pre‐incubation; n = 3–4 independent experiments, standard error of mean (SEM). Native bovine LOX was used as a surrogate for human LOX as both enzymes have similar pharmacology for fluoroallylamines.[2], [9] (C) Irreversible nature of PXS‐5878 enzyme inhibition confirmed using a jump dilution assay. Enzyme (rh LOXL1, rh LOXL2 or LOXL3) was pre‐incubated with 10 × IC50 of PXS‐5878 for 30 min, then diluted 100x and remaining activity assessed by Amplex Red assay. […] Each value is an average of three experiments. (D) Schematic representation of the assay development to detect lysyl oxidase activity by PXS‐5878 using a direct enzyme‐linked assay with lysyl oxidases as the target analyte. HRP: horseradish peroxidase; TMB: 3,3′,5,5′‐tetramethylbenzidine, a chromogenic substrate. After target analyte is bound to the plate, PXS‐5878 was incubated for 60 min in the presence or absence of a pan‐LOX inhibitor (β‐aminopropionitrile, [BAPN]) and streptavidin‐HRP is then added. After incubation the plate is washed and TMB added to measure the amount of bound ABP/streptavidin/HRP. This leads to a high signal. Application of BAPN to block the enzymatic site prevents PXS‐5878 from binding, and it is consequently washed off the plate, resulting in a low signal. In the final Simoa® assay, the enzyme is bound by the antibody to the bead. (E) Detection of enzymatically active lysyl oxidases by PXS‐5878. rh LOXL1, LOXL2 or LOXL3 were immobilised on the surface of a microtiter plate and processed as described in (D). Optical density in the absence of the pan‐LOX inhibitor BAPN (high signal) was divided by the value in the presence of BAPN (low signal). Low signal was 1.81 ± 0.77 (n = 8) times larger than blank controls. Two independent replicates were performed (total n = 4–5 for each enzyme).
Small molecule, selective LOXL2 (PXS‐5338, Figure S3) or pan‐LOX inhibitors compete with substrate but ultimately occupy the enzymatic pocket, irrespective of whether the substrate is small (e.g., putrescine) or large (e.g., collagen). […] Further studies with AB0023 were therefore limited to 300 nM.
FIGURE 2 Characteristics of PXS‐5338 and inhibition of lysyl oxidase‐like 2 (LOXL2) enzymatic activity in vitro and in vivo. (A) Chemical structure of PXS‐5338. […] (B) Tissue levels of PXS‐5338 measured 1 and 4 h after a single oral dose of 30 mg/kg in the rat. […] Average data from three different animals. (C) Concentration‐dependent inhibition of native human LOX and rh LOXL1‐4 in a standard Amplex Red assay with 30 min pre‐incubation; n ≥3 independent experiments, standard error of mean (SEM). (D) PXS‐5338 inhibits rh LOXL2 in a time‐dependent manner, with increasing potency observed upon longer incubation with the enzyme. […]

This is an account of results in publication PMC8571951, “An activity‐based bioprobe differentiates a novel small molecule inhibitor from a LOXL2 antibody and provides renewed promise for anti‐fibrotic therapeutic strategies” (Clinical and Translational Medicine, 2021).

With `CC(C)c1c(Cc2ccc(S(C)(=O)=O)nc2)c2ncccc2n1C/C(F)=C/CN` [PXS-5338], the “Change of potency with increasing substrate (putrescine) concentration” value (substrate added simultaneously with inhibitor) was “potency of PXS-5338 decreases”. On to `NC/C=C(\F)CS(=O)(=O)c1cccc(Cn2cc(-c3cc(OCCCc4cn(CCCCC[C@@H]5SC[C@@H]6NC(=O)N[C@@H]65)nn4)cc(OCCCc4cn(CCCCC[C@@H]5SC[C@@H]6NC(=O)N[C@@H]65)nn4)c3)nn2)c1` [PXS-5878], for which the IC50 (as a rule, the concentration needed to halve the response being measured) was 203 nM. For `CC(C)c1c(Cc2ccc(S(C)(=O)=O)nc2)c2ncccc2n1C/C(F)=C/CN` [PXS‐5338], the 50% inhibitory concentration (IC50) is 35 nM. Further, the “Concentration at which full inhibition of rh LOXL2 is achieved” value (standard assay using putrescine or collagen as substrate) is recorded as “above 300 nM”. For the same compound, under “varying pre-incubation times, putrescine as substrate”, the “Pre-incubation time after which inhibition of rh LOXL2 is complete” value turned out to be 2 h.
